Tests used:
Type in all cases: biochemical
BRAF_Cascade = target: T1, BRAF_Cascade (Homo sapiens, UniProt P15056); test: mobility shift assay
T1 construct: purchased Carna Biosciences

IKKβ = target: T2, IKKβ (Homo sapiens, UniProt O14920); test: mobility shift assay
T2 construct: purchased Carna Biosciences

LCK = target: T3, LCK (Homo sapiens, UniProt P06239); test: mobility shift assay
T3 construct: purchased Carna Biosciences

AMPKα1/β1/γ1 = target: T4, AMPKα1/β1/γ1 (Homo sapiens, UniProt Q13131); test: mobility shift assay
T4 construct: purchased Carna Biosciences

MAP3K2_Cascade = target: T5, MAP3K2_Cascade (Homo sapiens, UniProt Q9Y2U5); test: mobility shift assay
T5 construct: purchased Carna Biosciences

MST 1 = target: T6, MST 1 (Homo sapiens, UniProt Q13043); test: mobility shift assay
T6 construct: purchased Carna Biosciences

CDK5/p25 = target: T7, CDK5/p25 (Homo sapiens, UniProt Q00535); test: mobility shift assay
T7 construct: purchased Carna Biosciences

LOK = target: T8, LOK (Homo sapiens, UniProt O94804); test: mobility shift assay
T8 construct: purchased Carna Biosciences

MAPKAPK2 = target: T9, MAPKAPK2 (Homo sapiens, UniProt P49137); test: mobility shift assay
T9 construct: purchased Carna Biosciences

PDGFRα(T674I) = target: T10, PDGFRα(T674I) (Homo sapiens, UniProt P16234, T674I); test: mobility shift assay
T10 construct: purchased Carna Biosciences

EPHA5 = target: T11, EPHA5 (Homo sapiens, UniProt P54756); test: mobility shift assay
T11 construct: purchased Carna Biosciences
T11 sequence (P54756 25-1037): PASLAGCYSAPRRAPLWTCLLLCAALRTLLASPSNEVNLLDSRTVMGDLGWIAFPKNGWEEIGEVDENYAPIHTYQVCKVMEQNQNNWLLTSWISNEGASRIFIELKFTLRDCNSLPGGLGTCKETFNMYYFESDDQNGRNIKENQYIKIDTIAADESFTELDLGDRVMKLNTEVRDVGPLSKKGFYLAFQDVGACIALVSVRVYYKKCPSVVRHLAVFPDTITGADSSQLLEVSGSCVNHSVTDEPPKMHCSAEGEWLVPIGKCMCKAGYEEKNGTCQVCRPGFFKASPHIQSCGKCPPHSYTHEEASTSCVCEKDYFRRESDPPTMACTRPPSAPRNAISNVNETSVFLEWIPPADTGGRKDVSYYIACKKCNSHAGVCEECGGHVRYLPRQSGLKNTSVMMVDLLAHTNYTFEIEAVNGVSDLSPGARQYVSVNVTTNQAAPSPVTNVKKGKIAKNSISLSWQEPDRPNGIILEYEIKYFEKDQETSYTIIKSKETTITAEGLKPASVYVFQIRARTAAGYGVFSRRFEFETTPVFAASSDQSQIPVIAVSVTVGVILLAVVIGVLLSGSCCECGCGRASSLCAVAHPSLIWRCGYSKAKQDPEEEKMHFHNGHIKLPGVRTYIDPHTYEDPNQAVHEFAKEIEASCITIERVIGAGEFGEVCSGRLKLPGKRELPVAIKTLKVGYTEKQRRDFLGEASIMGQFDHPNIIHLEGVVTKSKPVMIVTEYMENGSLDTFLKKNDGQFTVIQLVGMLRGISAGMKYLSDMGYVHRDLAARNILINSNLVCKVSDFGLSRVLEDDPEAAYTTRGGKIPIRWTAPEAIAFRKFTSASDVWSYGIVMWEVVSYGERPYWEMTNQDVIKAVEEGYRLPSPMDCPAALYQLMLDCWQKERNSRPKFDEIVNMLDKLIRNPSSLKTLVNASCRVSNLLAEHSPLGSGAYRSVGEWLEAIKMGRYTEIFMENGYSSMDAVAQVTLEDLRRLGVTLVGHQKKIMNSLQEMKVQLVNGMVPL

BRSK1 = target: T12, BRSK1 (Homo sapiens, UniProt Q8TDC3); test: mobility shift assay
T12 construct: purchased Carna Biosciences

EPHB1 = target: T13, EPHB1 (Homo sapiens, UniProt P54762); test: mobility shift assay
T13 construct: purchased Carna Biosciences

HPK4 = target: T14, HPK4 (Homo sapiens, UniProt Q8NE63); test: mobility shift assay
T14 construct: purchased Carna Biosciences

RSK3 = target: T15, RSK3 (Homo sapiens, UniProt Q15349); test: mobility shift assay
T15 construct: purchased Carna Biosciences

JAK2 = target: T16, JAK2 (Homo sapiens, UniProt O60674); test: mobility shift assay
T16 construct: purchased Carna Biosciences

NDR2 = target: T17, NDR2 (Homo sapiens, UniProt Q9Y2H1); test: mobility shift assay
T17 construct: purchased Carna Biosciences

CK1y1 = target: T18, CK1y1 (Homo sapiens, UniProt Q9HCP0); test: mobility shift assay
T18 construct: purchased Carna Biosciences

AKT3 = target: T19, AKT3 (Homo sapiens, UniProt Q9Y243); test: mobility shift assay
T19 construct: purchased Carna Biosciences

PKR = target: T20, PKR (Homo sapiens, UniProt P19525); test: IMAP Assay
T20 construct: purchased Carna Biosciences

RET(Y791F) = target: T21, RET(Y791F) (Homo sapiens, UniProt P07949, Y791F); test: mobility shift assay
T21 construct: purchased Carna Biosciences

FGFR4(V550E) = target: T22, FGFR4(V550E) (Homo sapiens, UniProt P22455, V550E); test: mobility shift assay
T22 construct: purchased Carna Biosciences

HPK2 = target: T23, HPK2 (Homo sapiens, UniProt Q9H2X6); test: mobility shift assay
T23 construct: purchased Carna Biosciences

MST3 = target: T24, MST3 (Homo sapiens, UniProt Q9Y6E0); test: mobility shift assay
T24 construct: purchased Carna Biosciences

MER = target: T25, MER (Homo sapiens, UniProt Q12866); test: mobility shift assay
T25 construct: purchased Carna Biosciences

MET(D1228H) = target: T26, MET(D1228H) (Homo sapiens, UniProt P08581, D1228H); test: mobility shift assay
T26 construct: purchased Carna Biosciences

CLK2 = target: T27, CLK2 (Homo sapiens, UniProt P49760); test: mobility shift assay
T27 construct: purchased Carna Biosciences

SRPK1 = target: T28, SRPK1 (Homo sapiens, UniProt Q96SB4); test: IMAP Assay
T28 construct: purchased Carna Biosciences

BLK = target: T29, BLK (Homo sapiens, UniProt P51451); test: mobility shift assay
T29 construct: purchased Carna Biosciences

EPHA8 = target: T30, EPHA8 (Homo sapiens, UniProt P29322); test: mobility shift assay
T30 construct: purchased Carna Biosciences

FGFR1 = target: T31, FGFR1 (Homo sapiens, UniProt P11362); test: mobility shift assay
T31 construct: purchased Carna Biosciences

PIM 1 = target: T32, PIM 1 (Homo sapiens, UniProt P11309); test: mobility shift assay
T32 construct: purchased Carna Biosciences

WNK3 = target: T33, WNK3 (Homo sapiens, UniProt Q9BYP7); test: mobility shift assay
T33 construct: purchased Carna Biosciences

SRC = target: T34, SRC (Homo sapiens, UniProt P12931); test: mobility shift assay
T34 construct: purchased Carna Biosciences

EGFR(L858R) = target: T35, EGFR(L858R) (Homo sapiens, UniProt P00533, L858R); test: mobility shift assay
T35 construct: purchased Carna Biosciences

SRM = target: T36, SRM (Homo sapiens, UniProt Q9H3Y6); test: mobility shift assay
T36 construct: purchased Carna Biosciences
T36 sequence (Q9H3Y6 whole entry): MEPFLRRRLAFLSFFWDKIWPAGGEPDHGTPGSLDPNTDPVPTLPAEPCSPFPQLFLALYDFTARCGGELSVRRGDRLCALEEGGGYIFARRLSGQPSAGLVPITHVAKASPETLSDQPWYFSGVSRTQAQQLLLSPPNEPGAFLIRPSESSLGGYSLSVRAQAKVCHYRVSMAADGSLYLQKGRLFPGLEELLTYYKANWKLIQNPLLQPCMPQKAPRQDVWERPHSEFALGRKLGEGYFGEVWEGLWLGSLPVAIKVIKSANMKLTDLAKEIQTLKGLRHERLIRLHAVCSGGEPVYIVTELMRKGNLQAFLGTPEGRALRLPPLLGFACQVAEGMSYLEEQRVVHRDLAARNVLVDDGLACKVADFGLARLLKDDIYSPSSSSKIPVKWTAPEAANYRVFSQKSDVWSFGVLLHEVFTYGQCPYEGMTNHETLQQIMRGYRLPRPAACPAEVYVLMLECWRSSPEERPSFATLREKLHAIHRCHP

MRCKα = target: T37, MRCKα (Homo sapiens, UniProt Q5VT25); test: mobility shift assay
T37 construct: purchased Carna Biosciences

KKε = target: T38, KKε (Homo sapiens, UniProt Q14164); test: mobility shift assay
T38 construct: purchased Carna Biosciences

WNK1 = target: T39, WNK1 (Homo sapiens, UniProt Q9H4A3); test: mobility shift assay
T39 construct: purchased Carna Biosciences
T39 sequence (Q9H4A3 whole entry): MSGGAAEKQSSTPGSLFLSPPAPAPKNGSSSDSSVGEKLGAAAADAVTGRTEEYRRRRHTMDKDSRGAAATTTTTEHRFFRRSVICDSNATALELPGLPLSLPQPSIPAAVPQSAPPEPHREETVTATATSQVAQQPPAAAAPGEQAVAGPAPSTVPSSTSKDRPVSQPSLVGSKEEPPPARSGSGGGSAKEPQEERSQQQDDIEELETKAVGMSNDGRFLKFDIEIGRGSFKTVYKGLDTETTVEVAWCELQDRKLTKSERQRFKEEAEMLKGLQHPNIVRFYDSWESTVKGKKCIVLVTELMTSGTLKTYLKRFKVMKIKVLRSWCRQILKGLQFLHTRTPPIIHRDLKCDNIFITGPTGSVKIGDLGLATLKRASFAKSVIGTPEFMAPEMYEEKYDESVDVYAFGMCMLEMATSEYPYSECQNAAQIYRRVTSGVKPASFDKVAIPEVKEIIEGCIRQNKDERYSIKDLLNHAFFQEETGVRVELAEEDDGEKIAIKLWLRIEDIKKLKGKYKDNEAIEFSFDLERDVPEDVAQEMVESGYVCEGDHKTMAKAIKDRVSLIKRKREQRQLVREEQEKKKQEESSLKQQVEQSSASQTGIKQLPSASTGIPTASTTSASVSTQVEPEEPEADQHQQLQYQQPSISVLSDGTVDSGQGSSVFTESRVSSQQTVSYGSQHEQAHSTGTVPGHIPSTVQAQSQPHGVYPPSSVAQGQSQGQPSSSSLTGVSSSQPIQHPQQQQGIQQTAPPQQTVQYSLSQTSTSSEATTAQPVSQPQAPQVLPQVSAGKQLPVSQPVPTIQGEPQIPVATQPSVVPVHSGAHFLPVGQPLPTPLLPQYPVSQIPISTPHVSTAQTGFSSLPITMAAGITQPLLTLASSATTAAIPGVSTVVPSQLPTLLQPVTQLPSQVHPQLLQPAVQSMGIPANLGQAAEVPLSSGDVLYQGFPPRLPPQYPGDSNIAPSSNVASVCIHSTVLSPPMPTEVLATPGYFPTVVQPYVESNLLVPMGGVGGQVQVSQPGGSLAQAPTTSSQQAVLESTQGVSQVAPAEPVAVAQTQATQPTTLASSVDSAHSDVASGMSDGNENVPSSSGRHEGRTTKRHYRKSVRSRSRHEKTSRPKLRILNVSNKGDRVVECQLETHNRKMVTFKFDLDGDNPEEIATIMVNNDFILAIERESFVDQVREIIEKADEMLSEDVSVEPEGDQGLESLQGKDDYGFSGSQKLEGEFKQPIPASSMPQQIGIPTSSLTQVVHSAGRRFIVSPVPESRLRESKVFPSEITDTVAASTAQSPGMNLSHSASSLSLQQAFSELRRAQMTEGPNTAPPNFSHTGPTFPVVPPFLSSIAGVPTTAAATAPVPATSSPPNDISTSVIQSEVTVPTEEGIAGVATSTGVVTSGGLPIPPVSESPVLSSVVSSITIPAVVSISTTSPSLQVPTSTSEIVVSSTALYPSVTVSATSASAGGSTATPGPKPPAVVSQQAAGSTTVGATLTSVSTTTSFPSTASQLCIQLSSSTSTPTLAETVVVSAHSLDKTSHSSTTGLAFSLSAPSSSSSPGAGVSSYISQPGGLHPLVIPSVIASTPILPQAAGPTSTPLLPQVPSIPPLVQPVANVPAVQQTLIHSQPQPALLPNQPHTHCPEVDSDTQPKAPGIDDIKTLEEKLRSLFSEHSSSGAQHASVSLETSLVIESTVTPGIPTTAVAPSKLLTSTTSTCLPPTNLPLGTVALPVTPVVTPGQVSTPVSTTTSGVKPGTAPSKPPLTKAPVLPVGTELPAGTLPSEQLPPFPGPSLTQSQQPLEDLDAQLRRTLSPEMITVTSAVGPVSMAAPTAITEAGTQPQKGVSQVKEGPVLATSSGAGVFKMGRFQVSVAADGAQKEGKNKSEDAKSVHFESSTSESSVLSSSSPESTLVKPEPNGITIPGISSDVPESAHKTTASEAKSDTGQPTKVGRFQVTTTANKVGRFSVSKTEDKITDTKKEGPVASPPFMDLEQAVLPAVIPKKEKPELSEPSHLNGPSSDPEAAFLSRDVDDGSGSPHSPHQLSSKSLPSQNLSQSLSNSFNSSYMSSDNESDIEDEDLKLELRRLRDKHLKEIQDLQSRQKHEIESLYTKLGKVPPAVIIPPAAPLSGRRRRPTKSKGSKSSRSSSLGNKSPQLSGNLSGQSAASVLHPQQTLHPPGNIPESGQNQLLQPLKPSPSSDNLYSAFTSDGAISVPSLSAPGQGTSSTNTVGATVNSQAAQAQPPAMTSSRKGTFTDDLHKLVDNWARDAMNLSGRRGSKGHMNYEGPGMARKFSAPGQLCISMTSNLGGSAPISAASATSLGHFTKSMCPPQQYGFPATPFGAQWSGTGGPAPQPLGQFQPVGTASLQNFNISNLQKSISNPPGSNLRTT

RON = target: T40, RON (Homo sapiens, UniProt Q04912); test: mobility shift assay
T40 construct: purchased Carna Biosciences

AurA/TPX2 = target: T41, AurA/TPX2 (Homo sapiens, UniProt O14965); test: mobility shift assay
T41 construct: purchased Carna Biosciences

p38δ = target: T42, p38δ (Homo sapiens, UniProt O15264); test: mobility shift assay
T42 construct: purchased Carna Biosciences
T42 sequence (O15264 whole entry): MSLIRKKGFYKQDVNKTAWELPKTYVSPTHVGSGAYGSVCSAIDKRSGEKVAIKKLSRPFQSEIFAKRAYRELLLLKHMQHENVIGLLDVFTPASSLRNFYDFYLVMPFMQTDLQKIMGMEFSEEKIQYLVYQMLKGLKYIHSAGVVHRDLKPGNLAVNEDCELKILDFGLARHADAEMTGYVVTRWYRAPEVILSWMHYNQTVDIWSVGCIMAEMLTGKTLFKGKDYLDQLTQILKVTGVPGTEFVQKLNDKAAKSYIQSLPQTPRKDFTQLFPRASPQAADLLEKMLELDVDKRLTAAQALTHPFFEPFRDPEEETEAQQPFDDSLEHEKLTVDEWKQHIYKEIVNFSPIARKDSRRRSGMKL

T2 sequence (O14920 whole entry): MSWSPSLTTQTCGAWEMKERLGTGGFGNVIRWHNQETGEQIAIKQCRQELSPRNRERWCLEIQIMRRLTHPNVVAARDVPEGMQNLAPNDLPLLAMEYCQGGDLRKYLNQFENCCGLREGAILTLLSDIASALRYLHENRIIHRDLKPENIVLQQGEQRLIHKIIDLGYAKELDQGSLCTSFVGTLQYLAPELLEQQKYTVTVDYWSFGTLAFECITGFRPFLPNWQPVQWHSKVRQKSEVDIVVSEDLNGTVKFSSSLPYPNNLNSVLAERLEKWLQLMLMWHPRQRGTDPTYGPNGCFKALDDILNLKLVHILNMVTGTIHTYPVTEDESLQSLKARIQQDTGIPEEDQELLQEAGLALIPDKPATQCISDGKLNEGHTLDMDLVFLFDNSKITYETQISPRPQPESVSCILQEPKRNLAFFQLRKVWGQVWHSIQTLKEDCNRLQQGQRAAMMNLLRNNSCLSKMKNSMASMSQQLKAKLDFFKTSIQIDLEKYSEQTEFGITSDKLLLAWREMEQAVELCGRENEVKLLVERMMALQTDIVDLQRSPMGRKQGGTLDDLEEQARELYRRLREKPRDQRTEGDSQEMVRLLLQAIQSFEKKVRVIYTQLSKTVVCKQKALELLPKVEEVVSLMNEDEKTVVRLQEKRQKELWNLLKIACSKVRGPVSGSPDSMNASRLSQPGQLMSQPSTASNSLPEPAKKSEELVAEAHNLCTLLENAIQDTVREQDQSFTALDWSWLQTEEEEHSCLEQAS

C[C@@H]1CC[C@H]2C(C)(C)CCC[C@]2(C)c2c1oc1c(C=O)c(O)c(O)cc21 [LG-1, liphagal]
inhibition at 10 µM (BRAF_Cascade): 15%
inhibition at 10 µM (IKKβ): 2.4%
inhibition at 10 µM (LCK): 11%
inhibition at 10 µM (AMPKα1/β1/γ1): 19.9%
inhibition at 10 µM (MAP3K2_Cascade): 16.8%
inhibition at 10 µM (MST 1): 24.3%
inhibition at 10 µM (CDK5/p25): 17.8%
inhibition at 10 µM (LOK): 15.8%
inhibition at 10 µM (MAPKAPK2): 0.5%
inhibition at 10 µM (PDGFRα(T674I)): 29.2%
inhibition at 10 µM (EPHA5): 2.3%
inhibition at 10 µM (BRSK1): 9.2%
inhibition at 10 µM (EPHB1): 1.7%
inhibition at 10 µM (HPK4): 18.2%
inhibition at 10 µM (RSK3): 8.1%
inhibition at 10 µM (JAK2): -0.7%
inhibition at 10 µM (NDR2): -4.9%
inhibition at 10 µM (CK1y1): 2.8%
inhibition at 10 µM (AKT3): 3.3%
inhibition at 10 µM (PKR): 13.8%
inhibition at 10 µM (RET(Y791F)): 9.9%
inhibition at 10 µM (FGFR4(V550E)): 2.4%
inhibition at 10 µM (HPK2): 27%
inhibition at 10 µM (MST3): 62.7%
inhibition at 10 µM (MER): 2.1%
inhibition at 10 µM (MET(D1228H)): 2.9%
inhibition at 10 µM (CLK2): -25.5%
inhibition at 10 µM (SRPK1): 28.2%
inhibition at 10 µM (BLK): 29.4%
inhibition at 10 µM (EPHA8): 0.8%
inhibition at 10 µM (FGFR1): -2.3%
inhibition at 10 µM (PIM 1): 50.3%
inhibition at 10 µM (WNK3): 19%
inhibition at 10 µM (SRC): -7.1%
inhibition at 10 µM (EGFR(L858R)): 4.2%
inhibition at 10 µM (SRM): 19%
inhibition at 10 µM (MRCKα): 16%
inhibition at 10 µM (KKε): -6.3%
inhibition at 10 µM (WNK1): 17.3%
inhibition at 10 µM (RON): 7.8%
inhibition at 10 µM (AurA/TPX2): 12.2%
inhibition at 10 µM (p38δ): -0.1%

Source: patent US11691980B2, “Liphagal analog and multi-targeted kinase inhibitor containing liphagal or analog thereof” (TOHOKU UNIVERSITY, priority 2017, dated 2023)
